# Experimental data reported in US20230405028A1 (priority 2020, published 2023).
# Like-named read-outs stand apart in the source and are kept apart here.
# What was measured:
# mice = details: intraplantar injections (Bandell, 2004); cited from earlier work
# rats = rats (Iwasaki, 2008); cited from earlier work
# [1] = system: Human primary small intestinal epithelial cells (HSIEC)
# individuals [2] = assay: Minimum effective dose (MED, MED50) and perceived effects of 5HT2A agonist with or without TRP agonists in individuals; format: in vivo, human
# iNOS = iNOS in HSIEC cells treated with TNF-α/IFN-γ; format: cell-based, human; details: 5, 10, 20, 40 μM
# BDNF = BDNF in A-172 cells; format: cell-based; details: escalating doses
# Description: (§1) This experiment was designed to explore the synergistic interaction of 5HT2A agonist and a TRP agonists on receptors in the brain that are associated with depression and/or inflammation. […] The development of an inflammatory microenvironment is considered important to the initiation and progression of glioblastoma; however, therapeutic approaches to target inflammation have previously been limited. The abnormal function of IL-6 and IL-8 has been predicted to lead to glioblastoma.
# (§2) Thus, unlike the experiments on HSIEC cells described above, no inflammatory treatment was applied to the A-172 cells. The A-172 cells were grown to […] confluence on T-25 flasks to allow a 96-hour duration of exposure of the cells to the compounds of interest
# A-172 glioblastoma cells = assay: MTT cell viability assay in A-172 cells
# GABA = GABA in A-172 cells; format: cell-based; details: escalating doses
# Description: as §1, §2
# individuals [3] = assay: Surveys of participants using the formulations (music festival, wellness retreat, home use); details: surveys and self-report
# Description: Edible chew and capsule formulations including the Base 07—Complete with coffee beans, the 5HT2A agonist alone with corn starch (positive control) or sugar and placebo formulations including corn starch (negative control) or sugar alone (double negative control) were prepared and provided to small groups of individuals for assessment of the effects of the compositions.
# The formulations also included additional GRAS material. […] Some studies were undertaken in the context of a music festival. Other studies were undertaken at psilocybin retreat events. Numerous individuals also self-administered the formulations in their personal space and observed their daily routines over an extended number of days of using the formulations. Exclusion criteria were applied in a questionnaire to exclude individuals with a schizophrenia diagnosis, individuals with a family history of schizophrenia, pregnant individuals, minors and other high-risk categories for using psilocybin.
# Typically, between 1 and 9 dosage units were provided to each participant per day. The studies varied in duration from one day to four weeks. Heavier individuals (<75 kg) were typically given larger dosages.
# On multiple occasions a standard dose of the chocolate format of the complete recipe was distributed prior to a music festival event in Jamaica. […]
smiles,measurement,setting,value
"O=C/C=C/c1ccccc1 [cinnamaldehyde, (2E)-3-phenylprop-2-enal]",nociceptive behavior,mice,cause nociceptive behavior
same,adrenaline secretions,rats,increasing adrenaline secretions
same,Cellular Metabolic Activity,"[1]; 5 μM, 24 h",0.183
same,Cellular Metabolic Activity,"[1]; 5 μM, 48 h",0.148
same,Cellular Metabolic Activity,"[1]; 5 μM, 72 h",0.236
same,Cellular Metabolic Activity,"[1]; 5 μM, 96 h",0.423
same,Cellular Metabolic Activity,"[1]; 5 μM, time 0",0.026
same,Cellular Metabolic Activity,"[1]; 10 μM, 24 h",0.166
same,Cellular Metabolic Activity,"[1]; 10 μM, 48 h",0.119
same,Cellular Metabolic Activity,"[1]; 10 μM, 72 h",0.160
same,Cellular Metabolic Activity,"[1]; 10 μM, 96 h",0.321
same,Cellular Metabolic Activity,"[1]; 10 μM, time 0",0.022
same,Cellular Metabolic Activity,"[1]; 20 μM, 24 h",0.169
same,Cellular Metabolic Activity,"[1]; 20 μM, 48 h",0.095
same,Cellular Metabolic Activity,"[1]; 20 μM, 72 h",0.105
same,Cellular Metabolic Activity,"[1]; 20 μM, 96 h",0.152
same,Cellular Metabolic Activity,"[1]; 20 μM, time 0",0.025
same,Cellular Metabolic Activity,"[1]; 40 μM, 24 h",0.171
same,Cellular Metabolic Activity,"[1]; 40 μM, 48 h",0.049
same,Cellular Metabolic Activity,"[1]; 40 μM, 72 h",0.018
same,Cellular Metabolic Activity,"[1]; 40 μM, 96 h",0.015
same,Cellular Metabolic Activity,"[1]; 40 μM, time 0",0.026
same,Cellular Metabolic Activity,"[1]; 80 μM, 24 h",0.175
same,Cellular Metabolic Activity,"[1]; 80 μM, 48 h",0.021
same,Cellular Metabolic Activity,"[1]; 80 μM, 72 h",0
same,Cellular Metabolic Activity,"[1]; 80 μM, time 0",0.030
same,Cellular Metabolic Activity,"[1]; 100 μM, 24 h",0.171
same,Cellular Metabolic Activity,"[1]; 100 μM, 48 h",0.016
same,Cellular Metabolic Activity,"[1]; 100 μM, time 0",0.027
same,Cellular Metabolic Activity,"[1]; 200 μM, 24 h",0.191
same,Cellular Metabolic Activity,"[1]; 200 μM, 48 h",0.009
same,Cellular Metabolic Activity,"[1]; 200 μM, time 0",0.031
same,concentration above which inhibitory effect / significant toxicity (MTT),[1]; human,over 10 μM
"CN(C)CCc1c[nH]c2cccc(OP(=O)(O)O)c12 [psilocybin, 3-[2-(dimethylamino)ethyl]-4-phosphoryloxyindole, reference compound]",reduction in the MED50 with TRP agonists added,individuals [2]; FIGS. 6 to 8,~60%
same,MED (dose for 100% of individuals to report a psychoactive effect),"individuals [2]; oral, 70 kg individual",over 0.3 g of dried fruiting bodies
same,"effect on cell growth / cellular metabolic activity (MTT, words)",[1],increase growth of cells
same,Cellular Metabolic Activity,"[1]; 5 μM, 24 h",0.098
same,Cellular Metabolic Activity,"[1]; 5 μM, 48 h",0.186
same,Cellular Metabolic Activity,"[1]; 5 μM, 72 h",0.380
same,Cellular Metabolic Activity,"[1]; 5 μM, 96 h",0.621
same,Cellular Metabolic Activity,"[1]; 5 μM, time 0",0.047
same,Cellular Metabolic Activity,"[1]; 10 μM, 24 h",0.107
same,Cellular Metabolic Activity,"[1]; 10 μM, 48 h",0.198
same,Cellular Metabolic Activity,"[1]; 10 μM, 72 h",0.388
same,Cellular Metabolic Activity,"[1]; 10 μM, 96 h",0.624
same,Cellular Metabolic Activity,"[1]; 10 μM, time 0",0.038
same,Cellular Metabolic Activity,"[1]; 20 μM, 24 h",0.150
same,Cellular Metabolic Activity,"[1]; 20 μM, 48 h",0.238
same,Cellular Metabolic Activity,"[1]; 20 μM, 72 h",0.415
same,Cellular Metabolic Activity,"[1]; 20 μM, 96 h",0.635
same,Cellular Metabolic Activity,"[1]; 20 μM, time 0",0.038
same,Cellular Metabolic Activity,"[1]; 40 μM, 24 h",0.182
same,Cellular Metabolic Activity,"[1]; 40 μM, 48 h",0.259
same,Cellular Metabolic Activity,"[1]; 40 μM, 72 h",0.467
same,Cellular Metabolic Activity,"[1]; 40 μM, 96 h",0.685
same,Cellular Metabolic Activity,"[1]; 40 μM, time 0",0.041
same,Cellular Metabolic Activity,"[1]; 80 μM, 24 h",0.345
same,Cellular Metabolic Activity,"[1]; 80 μM, 48 h",0.371
same,Cellular Metabolic Activity,"[1]; 80 μM, 72 h",0.579
same,Cellular Metabolic Activity,"[1]; 80 μM, 96 h",0.805
same,Cellular Metabolic Activity,"[1]; 80 μM, time 0",0.042
same,Cellular Metabolic Activity,"[1]; 160 μM, 24 h",0.523
same,Cellular Metabolic Activity,"[1]; 160 μM, 48 h",0.604
same,Cellular Metabolic Activity,"[1]; 160 μM, 72 h",0.808
same,Cellular Metabolic Activity,"[1]; 160 μM, 96 h",1.099
same,Cellular Metabolic Activity,"[1]; 160 μM, time 0",0.042
same,dose reducing iNOS to the greatest extent,iNOS,10 µM
same,doses resulting in the decrease of BDNF,BDNF,20 µM
same,Cellular Metabolic Activity,"A-172 glioblastoma cells; 5 μM, 24 h",0.155
same,Cellular Metabolic Activity,"A-172 glioblastoma cells; 5 μM, 48 h",0.253
same,Cellular Metabolic Activity,"A-172 glioblastoma cells; 5 μM, 72 h",0.374
same,Cellular Metabolic Activity,"A-172 glioblastoma cells; 5 μM, 96 h",0.530
same,Cellular Metabolic Activity,"A-172 glioblastoma cells; 5 μM, time 0",0.090
same,Cellular Metabolic Activity,"A-172 glioblastoma cells; 10 μM, 24 h",0.181
same,Cellular Metabolic Activity,"A-172 glioblastoma cells; 10 μM, 48 h",0.269
same,Cellular Metabolic Activity,"A-172 glioblastoma cells; 10 μM, 72 h",0.363
same,Cellular Metabolic Activity,"A-172 glioblastoma cells; 10 μM, 96 h",0.577
same,Cellular Metabolic Activity,"A-172 glioblastoma cells; 10 μM, time 0",0.090
same,Cellular Metabolic Activity,"A-172 glioblastoma cells; 20 μM, 24 h",0.201
same,Cellular Metabolic Activity,"A-172 glioblastoma cells; 20 μM, 48 h",0.303
same,Cellular Metabolic Activity,"A-172 glioblastoma cells; 20 μM, 72 h",0.370
same,Cellular Metabolic Activity,"A-172 glioblastoma cells; 20 μM, 96 h",0.636
same,Cellular Metabolic Activity,"A-172 glioblastoma cells; 20 μM, time 0",0.082
same,Cellular Metabolic Activity,"A-172 glioblastoma cells; 40 μM, 24 h",0.287
same,Cellular Metabolic Activity,"A-172 glioblastoma cells; 40 μM, 48 h",0.369
same,Cellular Metabolic Activity,"A-172 glioblastoma cells; 40 μM, 72 h",0.457
same,Cellular Metabolic Activity,"A-172 glioblastoma cells; 40 μM, 96 h",0.703
same,Cellular Metabolic Activity,"A-172 glioblastoma cells; 40 μM, time 0",0.086
same,Cellular Metabolic Activity,"A-172 glioblastoma cells; 80 μM, 24 h",0.469
same,Cellular Metabolic Activity,"A-172 glioblastoma cells; 80 μM, 48 h",0.528
same,Cellular Metabolic Activity,"A-172 glioblastoma cells; 80 μM, 72 h",0.586
same,Cellular Metabolic Activity,"A-172 glioblastoma cells; 80 μM, 96 h",0.871
same,Cellular Metabolic Activity,"A-172 glioblastoma cells; 80 μM, time 0",0.084
same,"effect on cell growth (MTT, words)","A-172 glioblastoma cells; A-172, psilocybin 80 μM",modest increase in cell growth
same,dose resulting in the greatest increase of GABA,GABA,5 µM
same,side effects / tolerance / intoxication,individuals [3],no reports of intoxication or other psychoactive effects to a degree that influenced motor skills or coordination
